According to US7507727B2, “Substituted quinobenzoxazine analogs and methods of using thereof” (Cylene Pharmaceuticals, Inc., priority 2003, dated 2009):

Tests used:
[1] = system: phosphorylated p53 [pS15]; experiment: Phosphorylated p53 ELISA in HCT-116 cells; type: cell-based; settings: 24 hr, 1-5 uM
Experimental: The protocol for this assay is described as follows. On Day 1, cells were seeded at 2×10^6 cells/10 cm dish/10 mL medium. On day two, cells were treated as follows: control=0.05% DMSO (5 μl DMSO stock/10 ml medium); 1 μM CX3543 (1 μl Stock (10 mM)/10 ml medium); 2 μM CX3543 (2 μl Stock (10 mM)/10 ml medium); 3 μM CX3543 (3 μl Stock (10 mM)/10 ml medium); 4 μM CX3543 (4 μl Stock (10 mM)/10 ml medium) and 5 μM CX3543 (5 μl Stock (10 mM)/10 ml medium).
On Day 3, cells were harvested and attached and floating cells were collected. Cells were washed twice with PBS, counted and collected at 4×10^6 cells/sample. The cell pellet was frozen at −80° C. until further use. […]
Test Procedure. […] After washing, the plate is inverted and tapped dry on absorbance tissue. […]
Wash wells with 400 μl working wash buffer four times. […] After washing, the plate is inverted and tapped try on absorbance tissue. […] After washing, the plate is inverted and tapped try on absorbance tissue. […] Read the plate at A450 nm by setting chromogen blank (=100 μl TMB+100 μl Stop soln) as blank. Read absorbance within 2 hours of assay completion.

[2] = system: Chinese Hamster Ovary Cells (CHO); experiment: In vitro chromosome aberration assay (incl. mitotic index); type: cell-based; settings: for % MI 3 HRS + S9 / % MI 20 HRS / % MI: average mitotic index; for % MI: first column (time not given)

## CN1CCCC1CCNC(=O)c1cn2c3c(c(N4CCC(c5cnccn5)C4)c(F)cc3c1=O)Oc1cc3ccccc3cc1-2 (stereo not shown) [CX-3543]
[1]
  population of phosphorylated p53: enhanced
[2]; CHO, 0.0016 mg/mL
  % CA 3 HRS: 6.0%
  FI 3 HRS: 2.0
  % CA 3 HRS + S9: 4.5%
  FI 3 HRS + S9: 1.5
  % CA 20 HRS: 4.5%
  FI 20 HRS: 1.5
[2]; CHO, 0.005 mg/mL
  % CA 3 HRS: 5.5%
  FI 3 HRS: 1.8
  % CA 3 HRS + S9: 8.4%
  FI 3 HRS + S9: 2.8
  % CA 20 HRS: 5.0%
  FI 20 HRS: 1.7
[2]; CHO, 0.016 mg/mL
  % CA 3 HRS + S9: 9.0%
  FI 3 HRS + S9: 2.0
[2]; CHO, 3 h, 3 h + S9, 20 h
  mutagenicity (chromosome aberrations): not mutagenic
[2]; 0.0016 mg/mL
  % MI 3 HRS + S9: 12%
  % MI 20 HRS: 8%
  % MI: 6%
[2]; 0.005 mg/mL
  % MI 3 HRS + S9: 9%
  % MI 20 HRS: 4%
  % MI: 8%
[2]; 0.016 mg/mL
  % MI 3 HRS + S9: 1%
  % MI 20 HRS: 0%
  % MI: 1%
[2]; 0.05 mg/mL
  % MI 3 HRS + S9: 0%
  % MI 20 HRS: 0%
  % MI: 0%
[2]; 0.16 mg/mL
  % MI 3 HRS + S9: 0%
  % MI 20 HRS: 1%
  % MI: 0%
[2]; 0.5 mg/mL
  % MI 3 HRS + S9: 0%
  % MI 20 HRS: 0%
  % MI: 0%
